Test results taken from patent publication US20240300927A1, “AMIDES AS CBL-B INHIBITORS” (Genentech, Inc., priority 2021, published 2024).

Experiments:
[1] = target: Cbl-b (Homo sapiens (Human), UniProt Q13191); experiment: Cbl-b LCK Ub TR-FRET assay (Cbl-b Lck HTRF); type: biochemical; details: for (fold-selectivity): Cbl-b and C-Cbl selectivity, Lck HTRF; for IC50: read-out: Cbl-b Lck HTRF IC50
Description: (§1) Compounds were 3-fold serially diluted in DMSO in a 384-well polypropylene plate (#P-05525-BC; Labcyte) to generate a source plate with 10 concentrations of each compound, top concentration=2 mM. 80 nL of DMSO or compounds were transferred to each well of a black 384-well ProxiPlate (#6008260; PerkinElmer) using a Labcyte Echo. 1× assay buffer (50 mM HEPES pH7.0, 100 mM NaCl, 0.01% BSA, 0.01% Triton-X100, 1 mM DTT), 2× enzyme solution (16 nM Biotin-Cbl-b or 12 nM Biotin-c-Cbl in 1× assay buffer), 2× kinase mixture (120 nM His-LCK, 1 mM ATP, 10 mM MgCl2 in assay buffer) and 2.33× detection mixture (4.66× solution 1: 163 nM Anti-HA-D2 antibody (#610HADAB; PerkinElmer), 27.96 nM Streptavidin-EU (#AD0062; PerkinElmer), 1.398 mM EDTA in 1× assay buffer+4.66× solution 2: 2.796 μM UBE2D2/Methylated-HA-Ubiquitin thioester adduct (BostonBiochem) in 1× assay buffer) were prepared. 4 μL of 2× enzyme solution was added to each well containing compound, briefly centrifuged to mix, and incubated for 60 min at room temperature. 4 μL of 2× kinase mixture was added, briefly centrifuged to mix, and incubated for 90 min. at room temperature. 6 μL of detection mixture was added to all wells and briefly centrifuged before incubating for 20 min at room temperature. Plates were read for TR-FRET using an Envision at excitation 340 nm, emission at 615 and 665 nm, 4 flashes per well. IC50 was generated using no LCK as the low control and DMSO as the high control.
(§2) Cbl-b Lck HTRF data in Table 3 is measured according to Example 25 herein; C-cbl Lck HTRF data is measured according to Example 25 herein.
(§3) SPR and the LCK biochemical assay are orthogonal assays: SPR is a protein binding assay while the LCK assay is an enzyme activity assay. SPR measures compound binding affinity to CBL-B/C-CBL, whereas LCK assay measures compound inhibition of CBL-B/C-CBL ubiquitin transfer activity.

[2] = target: c-Cbl (Homo sapiens (Human), UniProt P22681); experiment: C-cbl LCK Ub TR-FRET assay (C-cbl Lck HTRF); type: biochemical
Description: as §1, §2, §3

Cbl-b, sequence (Q13191 40-426): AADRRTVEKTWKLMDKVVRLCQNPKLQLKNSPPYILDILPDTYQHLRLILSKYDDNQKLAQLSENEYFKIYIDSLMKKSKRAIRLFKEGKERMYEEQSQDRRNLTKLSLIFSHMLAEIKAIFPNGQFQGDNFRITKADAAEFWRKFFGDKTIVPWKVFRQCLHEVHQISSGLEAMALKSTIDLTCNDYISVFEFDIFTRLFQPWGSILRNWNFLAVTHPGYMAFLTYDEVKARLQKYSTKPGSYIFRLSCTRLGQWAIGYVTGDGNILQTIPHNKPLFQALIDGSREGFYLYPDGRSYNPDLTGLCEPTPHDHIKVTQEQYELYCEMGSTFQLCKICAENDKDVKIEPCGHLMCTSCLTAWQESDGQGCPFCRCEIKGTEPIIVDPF
c-Cbl, sequence (P22681 47-435): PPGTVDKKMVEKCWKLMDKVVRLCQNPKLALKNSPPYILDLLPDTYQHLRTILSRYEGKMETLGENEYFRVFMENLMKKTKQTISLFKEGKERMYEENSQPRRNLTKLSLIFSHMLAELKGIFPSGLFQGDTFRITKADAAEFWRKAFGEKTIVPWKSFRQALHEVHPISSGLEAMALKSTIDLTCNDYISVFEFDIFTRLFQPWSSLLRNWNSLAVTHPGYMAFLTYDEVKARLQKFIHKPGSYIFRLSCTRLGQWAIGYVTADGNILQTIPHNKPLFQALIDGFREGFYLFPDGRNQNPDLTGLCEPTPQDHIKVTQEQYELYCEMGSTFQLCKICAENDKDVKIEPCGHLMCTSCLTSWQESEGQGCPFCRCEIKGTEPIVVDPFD

(fold-selectivity) [1] | IC50 [1] [nM] | IC50 [2] [nM] | Structure (SMILES)
(1.2x) | 7.1 | 8.4 | CC(C)[C@H]1CN(C)CCN1Cc1cc(C(=O)Nc2cccc(C3([C@@H](F)c4nncn4C)CC(F)(F)C3)c2)nc(C2CC2)c1 [Compound 225, 6-cyclopropyl-N-(3-(3,3-difluoro-1-((R)-fluoro(4-methyl-4H-1,2,4-triazol-3-yl)methyl)cyclobutyl)phenyl)-4-(((S)-2-isopropyl-4-methylpiperazin-1-yl)methyl)picolinamide]
(1.6x) | 260 | 410 | Cn1cnnc1CC1(c2cccc(NC(=O)c3cccc(C(F)(F)F)n3)c2)CC(F)(F)C1 [Compound 16, N-(3-(3,3-difluoro-1-((4-methyl-4H-1,2,4-triazol-3-yl)methyl)cyclobutyl)phenyl)-6-(trifluoromethyl)picolinamide]
(0.55x) | 16000 | 8700 | Cn1cnnc1[C@@H](F)[C@]1(c2cccc(NC(=O)c3cccc(C(F)(F)F)n3)c2)CCO1 [Compound 504, N-(3-((R)-2-((R)-fluoro(4-methyl-4H-1,2,4-triazol-3-yl)methyl)oxetan-2-yl)phenyl)-6-(trifluoromethyl)picolinamide]
(0.63x) | 11 | 7 | CC(C)[C@H]1CN(C)CCN1Cc1cc(C(=O)Nc2cccc(C3([C@@H](F)c4nncn4C)COC3)c2)nc(C2CC2)c1 [Compound 499, 6-cyclopropyl-N-(3-(3-((R)-fluoro(4-methyl-4H-1,2,4-triazol-3-yl)methyl)oxetan-3-yl)phenyl)-4-(((S)-2-isopropyl-4-methylpiperazin-1-yl)methyl)picolinamide]
(0.79x) | 2800 | 2200 | C[C@H](Cc1nncn1C)c1cccc(NC(=O)c2nc(C3CC3)c[nH]2)c1 [Compound 122, (R)-4-cyclopropyl-N-(3-(1-(4-methyl-4H-1,2,4-triazol-3-yl)propan-2-yl)phenyl)-1H-imidazole-2-carboxamide]
(1.2x) | 21 | 27 | C[C@H](c1cc(C(=O)Nc2cccc(C3([C@@H](F)c4nncn4C)COC3)c2)nc(C2CC2)c1)N1CC(C)(F)C1 [Compound 113, 6-cyclopropyl-N-(3-(3-((R)-fluoro(4-methyl-4H-1,2,4-triazol-3-yl)methyl)oxetan-3-yl)phenyl)-4-((R)-1-(3-fluoro-3-methylazetidin-1-yl)ethyl)picolinamide]
(1.8x) | 17 | 31 | Cn1cnnc1[C@H](F)C1(c2cccc(NC(=O)c3cc(CN4CC(C)(F)C4)cc(C4CC4)n3)c2)COC1 [Compound 7, (R)-6-cyclopropyl-N-(3-(3-(fluoro(4-methyl-4H-1,2,4-triazol-3-yl)methyl)oxetan-3-yl)phenyl)-4-((3-fluoro-3-methylazetidin-1-yl)methyl)picolinamide]
(1.9x) | 420 | 800 | Cn1cnnc1[C@@H](F)C(C)(F)c1cccc(NC(=O)c2cc(CN3CC(C)(F)C3)nc(C3CC3)n2)c1 (stereo in doubt) [Compound 46, 2-cyclopropyl-N-(3-((1R,2R)-1,2-difluoro-1-(4-methyl-4H-1,2,4-triazol-3-yl)propan-2-yl)phenyl)-6-((3-fluoro-3-methylazetidin-1-yl)methyl)pyrimidine-4-carboxamide]
(1.6x) | 19 | 30 | Cn1cnnc1[C@H](F)C1(c2cccc(NC(=O)c3cc(CN4CCC5(CC5)C4)cc(C4CC4)n3)c2)COC1 [Compound 5, (R)-4-(5-azaspiro[2.4]heptan-5-ylmethyl)-6-cyclopropyl-N-(3-(3-(fluoro(4-methyl-4H-1,2,4-triazol-3-yl)methyl)oxetan-3-yl)phenyl)picolinamide]
(2.0x) | 30 | 60 | Cn1cnnc1[C@@H](F)C1(c2cccc(NC(=O)c3cc(CN4CC(C)(F)C4)cc(C4CC4)n3)c2)COC1 [Compound 8, (S)-6-cyclopropyl-N-(3-(3-(fluoro(4-methyl-4H-1,2,4-triazol-3-yl)methyl)oxetan-3-yl)phenyl)-4-((3-fluoro-3-methylazetidin-1-yl)methyl)picolinamide]
(0.92x) | 63 | 58 | C[C@@H](c1cc(C(=O)Nc2cccc(C3([C@H](F)c4nncn4C)COC3)c2)nc(C2CC2)c1)N1CCC2(CC2)C1 [Compound 24, 4-((S)-1-(5-azaspiro[2.4]heptan-5-yl)ethyl)-6-cyclopropyl-N-(3-(3-((S)-fluoro(4-methyl-4H-1,2,4-triazol-3-yl)methyl)oxetan-3-yl)phenyl)picolinamide]
(0.95x) | 34 | 33 | Cn1cnnc1[C@H](F)C1(c2cccc(NC(=O)c3cc(CN4CC(C)(CO)C4)cc(C4CC4)n3)c2)CC(F)(F)C1 [Compound 497, (R)-6-cyclopropyl-N-(3-(3,3-difluoro-1-(fluoro(4-methyl-4H-1,2,4-triazol-3-yl)methyl)cyclobutyl)phenyl)-4-((3-(hydroxymethyl)-3-methylazetidin-1-yl)methyl)picolinamide]
(1.7x) | 220 | 370 | C[C@H](c1cc(C(=O)Nc2cccc(C3(Cc4nncn4C)COC3)c2)nc(C(F)(F)F)c1)N1CC(F)C1 [Compound 2, (R)-4-(1-(3-fluoroazetidin-1-yl)ethyl)-N-(3-(3-((4-methyl-4H-1,2,4-triazol-3-yl)methyl)oxetan-3-yl)phenyl)-6-(trifluoromethyl)picolinamide]
(0.62x) | 10 | 6.2 | CC(C)[C@H]1CN(C)CCN1Cc1cc(C(=O)Nc2cccc(C3(Cc4nncn4C)COC3)c2)nc(C2CC2)c1 [Compound 498, (S)-6-cyclopropyl-4-((2-isopropyl-4-methylpiperazin-1-yl)methyl)-N-(3-(3-((4-methyl-4H-1,2,4-triazol-3-yl)methyl)oxetan-3-yl)phenyl)picolinamide]
(1.2x) | 120 | 140 | Cn1cnnc1[C@H](F)C1(c2cccc(NC(=O)c3cc(CN4CCC5(CC5)C4)nc(C4CC4)n3)c2)COC1 [Compound 62, (R)-6-((5-azaspiro[2.4]heptan-5-yl)methyl)-2-cyclopropyl-N-(3-(3-(fluoro(4-methyl-4H-1,2,4-triazol-3-yl)methyl)oxetan-3-yl)phenyl)pyrimidine-4-carboxamide]
(0.68x) | 17 | 12 | Cn1cnnc1CC1(c2cccc(NC(=O)c3cc(CN4CC(C)(O)C4)cc(C4CC4)n3)c2)CC(F)(F)C1 [Compound 495, 6-cyclopropyl-N-(3-(3,3-difluoro-1-((4-methyl-4H-1,2,4-triazol-3-yl)methyl)cyclobutyl)phenyl)-4-((3-hydroxy-3-methylazetidin-1-yl)methyl)picolinamide]
(1.4x) | 190 | 270 | Cn1cnnc1[C@@H](F)[C@](C)(F)c1cccc(NC(=O)c2cc(CN3CCC4(CC4)C3)nc(C3CC3)n2)c1 [Compound 42, 6-(5-azaspiro[2.4]heptan-5-ylmethyl)-2-cyclopropyl-N-(3-((1R,2R)-1,2-difluoro-1-(4-methyl-4H-1,2,4-triazol-3-yl)propan-2-yl)phenyl)pyrimidine-4-carboxamide]
(0.85x) | 20000 | 17000 | Cn1cnnc1[C@H](F)[C@]1(c2cccc(NC(=O)c3cccc(C(F)(F)F)n3)c2)CCO1 [Compound 503, N-(3-((R)-2-((S)-fluoro(4-methyl-4H-1,2,4-triazol-3-yl)methyl)oxetan-2-yl)phenyl)-6-(trifluoromethyl)picolinamide]

Structure (SMILES) | (fold-selectivity) [1] | IC50 [1] [nM] | IC50 [2] [nM]
Cn1cnnc1[C@@H](F)C1(c2cccc(NC(=O)c3cc(CN)cc(C(F)(F)F)n3)c2)COC1.O=CO [Compound 65, (S)-4-(aminomethyl)-N-(3-(3-(fluoro(4-methyl-4H-1,2,4-triazol-3-yl)methyl)oxetan-3-yl)phenyl)-6-(trifluoromethyl)picolinamide formate] | (1.2x) | 200 | 230
Cn1cnnc1[C@H](F)C1(c2cccc(NC(=O)c3cc(CN)cc(C(F)(F)F)n3)c2)COC1.O=CO [Compound 64, (R)-4-(aminomethyl)-N-(3-(3-(fluoro(4-methyl-4H-1,2,4-triazol-3-yl)methyl)oxetan-3-yl)phenyl)-6-(trifluoromethyl)picolinamide formate] | (1.2x) | 200 | 230
